Data reported in patent publication US7012082B2, “Method of correcting HERG channel dysfunction” (priority 2002, dated 2006).

Experiments:
HERG N470D = target: T1, HERG N470D (Homo sapiens, UniProt Q12809, N470D); conditions: cultured at physiological temperature in low concentrations of drug; earlier publications; cited from earlier work
T1 construct: expressed in transfected cells

[1] = target: T2, HERG N470D mutant channels (Homo sapiens, UniProt Q12809, N470D); conditions: cultured at physiological temperature in low concentrations of drug; earlier publications; cited from earlier work
[2] = target: T2, HERG N470D mutant channels

Compound	mature HERG protein band on western blot, N470D cells (HERG N470D)	HERG current after drug washout, N470D cells (pharmacological rescue) [1]	rescue of N470D current [2]
COc1cc(N)c(Cl)cc1C(=O)NC1CCN(CCCOc2ccc(F)cc2)CC1OC (stereo not drawn) [cisapride]	appearance on western blot analysis of the mature HERG protein band	large amplitude HERG current could be recorded	
Sodium-phenylbutyrate [4PBA]			did not rescue N470D current
